Experiments:
[1] = Cytotoxicity against HEK293T cells assessed as cell growth inhibition incubated for 5 days by MTT assay; assay type: toxicity, cell-based, HEK-293T; details: human, time 5 day
[2] = target: Glutamate carboxypeptidase 2 (Homo sapiens, UniProt Q04609); experiment: Inhibition of PSMA derived from human LNCaP cell lysate assessed as inhibition of NAAG hydrolysis incubated for 2 hrs in presence of NAAG by Amplex Red assay; assay type: subcellular
[3] = Cytotoxicity against human WI-38 VA13 cells assessed as cell growth inhibition incubated for 5 days by MTT assay; assay type: toxicity, cell-based; details: time 5 day
MCF7 = experiment: Cytotoxicity against human MCF7 cells assessed as cell growth inhibition incubated for 5 days by MTT assay; assay type: functional; details: MCF7, 120 h, time 5 day
A549 = experiment: Cytotoxicity against human A549 cells assessed as cell growth inhibition incubated for 5 days by MTT assay; assay type: functional; details: A549, 120 h, time 5 day
[4] = Drug uptake in human LNCaP cells assessed as drug accumulation by measuring fluorescence signal at 4 uM incubated for 30 mins by flow cytometry; assay type: ADME, cell-based; details: 0.5 h
[5] = Drug uptake in human 22Rv1 cells assessed as drug accumulation by measuring fluorescence signal at 4 uM incubated for 30 mins by flow cytometry; assay type: ADME, cell-based; details: cwr22r, 0.5 h
[6] = Drug uptake in human PC-3 cells assessed as drug accumulation by measuring fluorescence signal at 4 uM incubated for 30 mins by flow cytometry; assay type: ADME, cell-based; details: pc-3, 0.5 h
LNCaP = experiment: Cytotoxicity against human LNCaP cells assessed as reduction in cell viability incubated for 5 days by MTT assay; assay type: functional; details: 120 h, time 5 day
PC-3 = experiment: Cytotoxicity against human PC-3 cells assessed as reduction in cell viability incubated for 5 days by MTT assay; assay type: functional; details: PC-3, 120 h, time 5 day
[7] = Chronic toxicity in Soviet Chinchilla rabbit assessed as change in blood albumin content at 120 to 243 mg/kg, iv administered once every 3 weeks; assay type: organism-based, Oryctolagus cuniculus; details: in vivo, 504 h, dose 120-243 mg/kg
[8] = Chronic toxicity in Soviet Chinchilla rabbit assessed as signs of intoxication at 120 to 243 mg/kg, iv administered once every 3 weeks; assay type: organism-based, Oryctolagus cuniculus; details: in vivo, 504 h, dose 120-243 mg/kg
[9] = Chronic toxicity in Soviet Chinchilla rabbit assessed as change in brain histology at 120 to 243 mg/kg, iv administered once every 3 weeks; assay type: organism-based, Oryctolagus cuniculus; details: in vivo, 504 h, dose 120-243 mg/kg
[10] = Chronic toxicity in Soviet Chinchilla rabbit assessed as change in heart histology at 120 to 243 mg/kg, iv administered once every 3 weeks; assay type: organism-based, Oryctolagus cuniculus; details: in vivo, 504 h, dose 120-243 mg/kg
[11] = Chronic toxicity in Soviet Chinchilla rabbit assessed as change in lung histology at 120 to 243 mg/kg, iv administered once every 3 weeks; assay type: organism-based, Oryctolagus cuniculus; details: in vivo, 504 h, dose 120-243 mg/kg
[12] = Chronic toxicity in Soviet Chinchilla rabbit assessed as change in liver histology at 120 to 243 mg/kg, iv administered once every 3 weeks; assay type: organism-based, Oryctolagus cuniculus; details: in vivo, 504 h, dose 120-243 mg/kg
[13] = Chronic toxicity in Soviet Chinchilla rabbit assessed as change in kidney histology at 120 to 243 mg/kg, iv administered once every 3 weeks; assay type: organism-based, Oryctolagus cuniculus; details: in vivo, 504 h, dose 120-243 mg/kg
[14] = Chronic toxicity in Soviet Chinchilla rabbit assessed as change in spleen histology at 120 to 243 mg/kg, iv administered once every 3 weeks; assay type: organism-based, Oryctolagus cuniculus; details: in vivo, 504 h, dose 120-243 mg/kg

Sequence of Glutamate carboxypeptidase 2 (Q04609 whole entry): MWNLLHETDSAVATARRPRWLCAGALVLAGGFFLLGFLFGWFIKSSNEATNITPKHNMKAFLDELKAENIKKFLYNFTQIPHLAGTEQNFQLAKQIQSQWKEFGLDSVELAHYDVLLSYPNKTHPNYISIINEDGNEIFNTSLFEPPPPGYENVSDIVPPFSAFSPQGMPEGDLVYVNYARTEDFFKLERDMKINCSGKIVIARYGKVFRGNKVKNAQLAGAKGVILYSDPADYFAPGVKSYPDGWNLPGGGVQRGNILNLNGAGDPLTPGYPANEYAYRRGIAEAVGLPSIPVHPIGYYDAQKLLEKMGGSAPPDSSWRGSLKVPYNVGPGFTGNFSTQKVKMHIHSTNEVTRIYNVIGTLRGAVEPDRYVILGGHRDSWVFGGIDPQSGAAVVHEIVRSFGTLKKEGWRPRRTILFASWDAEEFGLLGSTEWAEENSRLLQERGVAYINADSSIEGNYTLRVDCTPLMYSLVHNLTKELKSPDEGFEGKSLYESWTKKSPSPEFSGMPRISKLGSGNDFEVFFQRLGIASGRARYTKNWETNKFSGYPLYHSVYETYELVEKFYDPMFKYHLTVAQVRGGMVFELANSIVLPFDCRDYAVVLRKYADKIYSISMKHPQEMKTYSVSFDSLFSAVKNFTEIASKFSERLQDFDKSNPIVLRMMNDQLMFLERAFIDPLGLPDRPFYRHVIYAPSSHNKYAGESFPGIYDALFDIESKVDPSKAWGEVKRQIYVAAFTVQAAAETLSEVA

Row | SMILES | CC50 at 120 h [1] [µM] | IC50 [2] [µM] | CC50 at 120 h [3] [µM] | CC50 (MCF7) [µM] | CC50 (A549) [µM] | also measured
1 | [N-]=[N+]=NCCCNC(=O)[C@@H](Cc1ccccc1)NC(=O)[C@@H](Cc1ccccc1)NC(=O)CCC(=O)NCCCCCC(=O)N(CCCC[C@H](NC(=O)N[C@@H](CCC(=O)O)C(=O)O)C(=O)O)Cc1ccc(Cl)c(F)c1 | 51 | 0.294 | > 100 | > 100 | > 100 | 
2 | [N-]=[N+]=NCCCNC(=O)[C@H](Cc1ccccc1)NC(=O)[C@H](Cc1ccccc1)NC(=O)CCC(=O)NCCCCCC(=O)N(CCCC[C@H](NC(=O)N[C@@H](CCC(=O)O)C(=O)O)C(=O)O)Cc1ccccc1 | 114 | 0.028 | > 100 | > 100 | > 100 | 
3 | [N-]=[N+]=NCCCNC(=O)[C@H](Cc1ccccc1)NC(=O)[C@H](Cc1ccccc1)NC(=O)CCC(=O)NCCCCCC(=O)N(CCCC[C@H](NC(=O)N[C@@H](CCC(=O)O)C(=O)O)C(=O)O)Cc1ccc(Br)cc1 | > 100 | 0.05 | > 100 | > 100 | > 100 | 
4 | [N-]=[N+]=NCCCNC(=O)[C@H](Cc1ccccc1)NC(=O)[C@H](Cc1ccccc1)NC(=O)CCC(=O)NCCCCCC(=O)N(CCCC[C@H](NC(=O)N[C@@H](CCC(=O)O)C(=O)O)C(=O)O)Cc1ccc(Cl)c(F)c1 | 71 | 0.063 | > 100 | > 100 | > 100 | 
5 | [N-]=[N+]=NCCCNC(=O)[C@@H](Cc1ccc(O)cc1)NC(=O)[C@@H](Cc1ccccc1)NC(=O)CCC(=O)NCCCCCC(=O)N(CCCC[C@H](NC(=O)N[C@@H](CCC(=O)O)C(=O)O)C(=O)O)Cc1ccc(Cl)cc1 |  | 0.027 |  |  |  | 
6 | [N-]=[N+]=NCCCNC(=O)[C@H](Cc1ccc(O)cc1)NC(=O)[C@H](Cc1ccccc1)NC(=O)CCC(=O)NCCCCCC(=O)N(CCCC[C@H](NC(=O)N[C@@H](CCC(=O)O)C(=O)O)C(=O)O)Cc1ccc(Cl)c(F)c1 | > 100 | 0.062 | > 100 | > 100 | > 100 | 
7 | CN1/C(=C/C=C/C=C/C2=[N+](CCCCCC(=O)O)c3ccc(S(=O)(=O)[O-])cc3C2(C)C)C(C)(C)c2cc(S(=O)(=O)O)ccc21 |  |  |  |  |  | Drug uptake [4]: 98.4%; Drug uptake [5]: 57.5%; Drug uptake [6]: 41.1%; CC50 (LNCaP): > 100 µM; CC50 (PC-3): > 100 µM
8 | [N-]=[N+]=NCCCNC(=O)[C@H](Cc1ccccc1)NC(=O)[C@H](Cc1ccccc1)NC(=O)CCC(=O)NCCCCCC(=O)N(CCCC[C@H](NC(=O)N[C@@H](CCC(=O)O)C(=O)O)C(=O)O)Cc1ccc(Cl)cc1F | > 100 | 0.043 | > 100 | > 100 | > 100 | 
9 | [N-]=[N+]=NCCCNC(=O)[C@@H](Cc1ccc(O)cc1)NC(=O)[C@@H](Cc1ccccc1)NC(=O)CCC(=O)NCCCCCC(=O)N(CCCC[C@H](NC(=O)N[C@@H](CCC(=O)O)C(=O)O)C(=O)O)Cc1ccc(Br)cc1 |  | 3.16 |  |  |  | 
10 | [N-]=[N+]=NCCCNC(=O)[C@@H](Cc1ccccc1)NC(=O)[C@@H](Cc1ccccc1)NC(=O)CCC(=O)NCCCCCC(=O)N(CCCC[C@H](NC(=O)N[C@@H](CCC(=O)O)C(=O)O)C(=O)O)Cc1ccc(Cl)cc1 |  | 0.226 |  |  |  | 
11 | [N-]=[N+]=NCCCNC(=O)[C@H](Cc1ccccc1)NC(=O)[C@H](Cc1ccccc1)NC(=O)CCC(=O)NCCCCCC(=O)N(CCCC[C@H](NC(=O)N[C@@H](CCC(=O)O)C(=O)O)C(=O)O)Cc1cccc(Cl)c1 |  | 0.038 |  |  |  | 
12 | [N-]=[N+]=NCCCNC(=O)[C@@H](Cc1ccc(O)c(Br)c1)NC(=O)[C@@H](Cc1ccccc1)NC(=O)CCC(=O)NCCCCCC(=O)N(CCCC[C@H](NC(=O)N[C@@H](CCC(=O)O)C(=O)O)C(=O)O)Cc1ccc(Br)cc1 |  | 0.089 |  |  |  | 
13 | [N-]=[N+]=NCCCNC(=O)[C@H](Cc1ccc(O)cc1)NC(=O)[C@H](Cc1ccccc1)NC(=O)CCC(=O)NCCCCCC(=O)N(CCCC[C@H](NC(=O)N[C@@H](CCC(=O)O)C(=O)O)C(=O)O)Cc1ccc(Br)cc1 | > 100 | 0.017 | > 100 | > 100 | > 100 | 
14 | [N-]=[N+]=NCCCNC(=O)[C@@H](Cc1ccc(O)cc1)NC(=O)[C@@H](Cc1ccccc1)NC(=O)CCC(=O)NCCCCCC(=O)N(CCCC[C@H](NC(=O)N[C@@H](CCC(=O)O)C(=O)O)C(=O)O)Cc1ccc(Cl)c(F)c1 |  | 0.108 |  |  |  | 
15 | [N-]=[N+]=NCCCNC(=O)[C@H](Cc1ccc(O)cc1)NC(=O)[C@H](Cc1ccccc1)NC(=O)CCC(=O)NCCCCCC(=O)N(CCCC[C@H](NC(=O)N[C@@H](CCC(=O)O)C(=O)O)C(=O)O)Cc1cccc(Cl)c1 | > 100 | 0.003 | > 100 | > 100 | > 100 | Ki [2]: 0.001 µM; CC50 (LNCaP): > 100 µM; CC50 (PC-3): > 100 µM
16 | [N-]=[N+]=NCCCNC(=O)[C@@H](Cc1ccc(O)cc1)NC(=O)[C@@H](Cc1ccccc1)NC(=O)CCC(=O)NCCCCCC(=O)N(CCCC[C@H](NC(=O)N[C@@H](CCC(=O)O)C(=O)O)C(=O)O)Cc1cccc(Cl)c1 |  | 0.107 |  |  |  | 
17 | [N-]=[N+]=NCCCNC(=O)[C@@H](Cc1ccccc1)NC(=O)[C@@H](Cc1ccccc1)NC(=O)CCC(=O)NCCCCCC(=O)N(CCCC[C@H](NC(=O)N[C@@H](CCC(=O)O)C(=O)O)C(=O)O)Cc1ccc(Br)cc1 | 88 | 0.319 | > 100 | > 100 | > 100 | 
18 | [N-]=[N+]=NCCCNC(=O)[C@@H](Cc1ccc(O)c(Br)c1)NC(=O)[C@@H](Cc1ccccc1)NC(=O)CCC(=O)NCCCCCC(=O)N(CCCC[C@H](NC(=O)N[C@@H](CCC(=O)O)C(=O)O)C(=O)O)Cc1cccc(Cl)c1 |  | 0.08 |  |  |  | 
19 | [N-]=[N+]=NCCCNC(=O)[C@H](Cc1ccccc1)NC(=O)[C@H](Cc1ccccc1)NC(=O)CCC(=O)NCCCCCC(=O)NCCCC[C@H](NC(=O)N[C@@H](CCC(=O)O)C(=O)O)C(=O)O | 62 |  | > 100 | > 100 | > 100 | 
20 | CN1/C(=C/C=C2C=C(/C=C/C3=[N+](CCCCCC(=O)O)c4ccc(S(=O)(=O)[O-])cc4C3(C)C)CCC/2)C(C)(C)c2cc(S(=O)(=O)O)ccc21 |  |  |  |  |  | CC50 (LNCaP): > 100 µM; CC50 (PC-3): > 100 µM; Activity [7]: Toxic; Activity [8]: Non-Toxic; Activity [9]: Non-Toxic; Activity [10]: Non-Toxic; Activity [11]: Non-Toxic; Activity [12]: Non-Toxic; Activity [13]: Non-Toxic; Activity [14]: Non-Toxic
21 | [N-]=[N+]=NCCCNC(=O)[C@H](Cc1ccc(O)cc1)NC(=O)[C@H](Cc1ccccc1)NC(=O)CCC(=O)NCCCCCC(=O)N(CCCC[C@H](NC(=O)N[C@@H](CCC(=O)O)C(=O)O)C(=O)O)Cc1ccc(Cl)cc1 |  | 0.046 |  |  |  | 
22 | NCCCC[C@H](NC(=O)N[C@@H](CCC(=O)O)C(=O)O)C(=O)O | > 100 |  | > 100 | > 100 | > 100 | 
23 | [N-]=[N+]=NCCCNC(=O)[C@@H](Cc1ccccc1)NC(=O)[C@@H](Cc1ccccc1)NC(=O)CCC(=O)NCCCCCC(=O)N(CCCC[C@H](NC(=O)N[C@@H](CCC(=O)O)C(=O)O)C(=O)O)Cc1cccc(Cl)c1 |  | 0.046 |  |  |  | 
24 | [N-]=[N+]=NCCCNC(=O)[C@H](Cc1ccccc1)NC(=O)[C@H](Cc1ccccc1)NC(=O)CCC(=O)NCCCCCC(=O)N(CCCC[C@H](NC(=O)N[C@@H](CCC(=O)O)C(=O)O)C(=O)O)Cc1ccc(Cl)cc1 |  | 0.055 |  |  |  | 
25 | [N-]=[N+]=NCCCNC(=O)[C@H](Cc1ccccc1)NC(=O)[C@H](Cc1ccccc1)NC(=O)CCC(=O)NCCCC(=O)N(CCCC[C@H](NC(=O)N[C@@H](CCC(=O)O)C(=O)O)C(=O)O)Cc1ccccc1 | > 100 | 0.175 | > 100 | > 100 | > 100 | 

From ChEMBL document CHEMBL5096171, “Synthesis and Biological Evaluation of PSMA Ligands with Aromatic Residues and Fluorescent Conjugates Based on Them” (J Med Chem, 2021)
